How the values were obtained:
tubulin polymerisation = experiment: Tubulin immunofluorescence microscopy in HCT116 cells; format: cell-based, human; settings: HCT116, IC50 of compound, 36 h
Description: The process of tubulin polymerisation in the cells is important for the completion of mitosis and is targeted for cancer treatment. It has been reported that the suppression of tubulin polymerisation will arrest the cells at the G2/M and it eventually leads to cell death. To test the tubulin-disruptive effect of the CP hybrids, HCT116 cells were analysed by immunocytochemistry. HCT116 cells were incubated for 36 h with IC50 of the CP hybrids (4a, 4b, 4e, 4i, and 4j), nocodazole (a well-known tubulin polymerisation inhibitor, as a positive control), DMSO or Paclitaxel (a well-known tubulin polymerisation inducer, as a negative control), and tubulin was visualised by immunofluorescence microscopy. An antibody for α-tubulin was used. […] Moreover, a Western blot was performed to verify the tubulin polymerisation inhibition ability of the synthesised compounds (Figure 8(B)). The level of polymerised tubulin was decreased in HCT116 cells treated with IC50 values of CP hybrids 4a, 4b, 4e, 4i, 4j, or nocodazole.
HCT116 cells were cultured and treated with the IC50 of the potent compounds (4a, 4b, 4e, 4i, and 4j) or DMSO (control), fixed, permeabilized, and they were incubated with either γH2AX or α-tubulin antibody as the reported procedure in the literature. Confocal images were captured using a Confocal Microscope with a 63X objective. All images were processed using ImageJ software. See Supplementary Appendix A.

UACC-62 = experiment: NCI one-dose screen; format: cell-based; settings: Homo sapiens; UACC-62, 10 µM; read-out: Growth Percent
Summary of the method: (§1)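 In vitro growth inhibition screen by the National Cancer Institute; compound concentration fixed at 10 µM; panel of 59 human tumour cell lines. Results given as percent growth.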

786-0 = experiment: NCI one-dose screen; format: cell-based; settings: Homo sapiens; 786-0, 10 µM; read-out: Growth Percent
Summary of the method: as §1

HT29 = experiment: NCI one-dose screen; format: cell-based; settings: Homo sapiens, HT-29; HT29, 10 µM; read-out: Growth Percent
Summary of the method: as §1

NCI-H23 = experiment: NCI one-dose screen; format: cell-based; settings: Homo sapiens; NCI-H23, 10 µM; read-out: Growth Percent
Summary of the method: as §1

COLO 205 = experiment: NCI one-dose screen; format: cell-based; settings: Homo sapiens; COLO 205, 10 µM; read-out: Growth Percent
Summary of the method: as §1

HL-60(TB) = experiment: NCI one-dose screen; format: cell-based; settings: Homo sapiens, read-out: Growth Percent
MDA-MB-468 = experiment: NCI one-dose screen; format: cell-based; settings: Homo sapiens; MDA-MB-468, 10 µM; read-out: Growth Percent
Summary of the method: as §1

DU-145 = experiment: NCI one-dose screen; format: cell-based; settings: Homo sapiens; DU-145, 10 µM; read-out: Growth Percent
Summary of the method: as §1

MDA-MB-435 = experiment: NCI one-dose screen; format: cell-based; settings: Homo sapiens; MDA-MB-435, 10 µM; read-out: Growth Percent
Summary of the method: as §1

RXF 393 = experiment: NCI one-dose screen; format: cell-based; settings: Homo sapiens; RXF 393, 10 µM; read-out: Growth Percent
Summary of the method: as §1

PC-3 = experiment: NCI one-dose screen; format: cell-based; settings: Homo sapiens; PC-3, 10 µM; read-out: Growth Percent
Summary of the method: as §1

HCC-2998 = experiment: NCI one-dose screen; format: cell-based; settings: Homo sapiens; HCC-2998, 10 µM; read-out: Growth Percent
Summary of the method: as §1

NCI-H522 = experiment: NCI one-dose screen; format: cell-based; settings: Homo sapiens; NCI-H522, 10 µM; read-out: Growth Percent
Summary of the method: as §1

K-562 = experiment: NCI one-dose screen; format: cell-based; settings: Homo sapiens, K562; K-562, 10 µM; read-out: Growth Percent
Summary of the method: as §1

OVCAR-8 = experiment: NCI one-dose screen; format: cell-based; settings: Homo sapiens; OVCAR-8, 10 µM; read-out: Growth Percent
Summary of the method: as §1

A498 = experiment: NCI one-dose screen; format: cell-based; settings: Homo sapiens; A498, 10 µM; read-out: Growth Percent
Summary of the method: as §1

HS 578T = experiment: NCI one-dose screen; format: cell-based; settings: Homo sapiens, read-out: Growth Percent
Summary of the method: as §1

OVCAR-5 = experiment: NCI one-dose screen; format: cell-based; settings: Homo sapiens; OVCAR-5, 10 µM; read-out: Growth Percent
Summary of the method: as §1

OVCAR-4 = experiment: NCI one-dose screen; format: cell-based; settings: Homo sapiens; OVCAR-4, 10 µM; read-out: Growth Percent
Summary of the method: as §1

LOX IMVI = experiment: NCI one-dose screen; format: cell-based; settings: Homo sapiens, read-out: Growth Percent
Summary of the method: as §1

SF-268 = experiment: NCI one-dose screen; format: cell-based; settings: Homo sapiens; SF-268, 10 µM; read-out: Growth Percent
Summary of the method: as §1

SNB-19 = experiment: NCI one-dose screen; format: cell-based; settings: Homo sapiens; SNB-19, 10 µM; read-out: Growth Percent
Summary of the method: as §1

EKVX = experiment: NCI one-dose screen; format: cell-based; settings: Homo sapiens, read-out: Growth Percent
Summary of the method: as §1

U251 = experiment: NCI one-dose screen; format: cell-based; settings: Homo sapiens, U-251; U251, 10 µM; read-out: Growth Percent
Summary of the method: as §1

SN12C = experiment: NCI one-dose screen; format: cell-based; settings: Homo sapiens, read-out: Growth Percent
Summary of the method: as §1

UACC-257 = experiment: NCI one-dose screen; format: cell-based; settings: Homo sapiens; UACC-257, 10 µM; read-out: Growth Percent
Summary of the method: as §1

SW-620 = experiment: NCI one-dose screen; format: cell-based; settings: Homo sapiens; SW-620, 10 µM; read-out: Growth Percent
Summary of the method: as §1

| Compound | tubulin polymerisation, morphological changes by immunofluorescence (tubulin polymerisation) | activity at 10 µM (UACC-62) [%] | activity at 10 µM (786-0) [%] | activity at 10 µM (HT29) [%] | activity at 10 µM (NCI-H23) [%] | activity at 10 µM (COLO 205) [%] | activity at 10 µM (HL-60(TB)) [%] | activity at 10 µM (MDA-MB-468) [%] | activity at 10 µM (DU-145) [%] | activity at 10 µM (MDA-MB-435) [%] | activity at 10 µM (RXF 393) [%] | activity at 10 µM (PC-3) [%] | activity at 10 µM (HCC-2998) [%] | activity at 10 µM (NCI-H522) [%] | activity at 10 µM (K-562) [%] | activity at 10 µM (OVCAR-8) [%] | activity at 10 µM (A498) [%] | activity at 10 µM (HS 578T) [%] | activity at 10 µM (OVCAR-5) [%] | activity at 10 µM (OVCAR-4) [%] | further results |
| --- | --- | --- | --- | --- | --- | --- | --- | --- | --- | --- | --- | --- | --- | --- | --- | --- | --- | --- | --- | --- | --- |
| COc1ccc(/C=C/C(=O)c2ccc(-n3cc(CN4CCN(c5cc6c(cc5F)c(=O)c(C(=O)O)cn6C5CC5)CC4)nn3)cc2)cc1OC [Compound 4i, (E)-1-cyclopropyl-7-(4-((1-(4-(3–(3,4-dimethoxyphenyl)acryloyl)phenyl)-1H-1,2,3-triazol-4-yl)methyl)piperazin-1-yl)-6-fluoro-4-oxo-1,4-dihydroquinoline-3-carboxylic acid] | significant tubulin polymerisation inhibition | 53.9 | 71.9 | 29.6 | 78.7 | 98.2 | 85.9 | 26.3 | 83.2 | 22.2 | 64.2 | 56.3 | 44 | 67.6 | 42.5 | 67.4 | 68.2 | 52.8 | 92.1 | 88 | activity at 10 µM (LOX IMVI): 27.9%; activity at 10 µM (SF-268): 56%; activity at 10 µM (SNB-19): 67.7%; activity at 10 µM (EKVX): 96.6%; activity at 10 µM (U251): 41.4%; activity at 10 µM (SN12C): 32.6%; activity at 10 µM (UACC-257): 78.7%; activity at 10 µM (SW-620): 32.8% |
| O=C(/C=C/c1ccc(F)cc1)c1ccc(-n2cc(CN3CCN(c4cc5c(cc4F)c(=O)c(C(=O)O)cn5C4CC4)CC3)nn2)cc1 [Compound 4e, (E)-1-cyclopropyl-6-fluoro-7–(4-((1–(4-(3-(4-fluorophenyl)acryloyl)phenyl)-1H-1,2,3-triazol-4-yl)methyl)piperazin-1-yl)-4-oxo-1,4-dihydroquinoline-3-carboxylic acid] | significant tubulin polymerisation inhibition | 55.8 | 33.2 | 28 | 80.3 | 105 | 84.6 | 32.9 | 51.6 | 64.7 | 45 | 57.4 | 79.3 | 48.5 | 21.9 | 23.3 | 61.1 | 57.5 | 84.2 | 93.1 | activity at 10 µM (LOX IMVI): 20.3%; activity at 10 µM (SF-268): 35.7%; activity at 10 µM (SNB-19): 31.6%; activity at 10 µM (EKVX): 87.5%; activity at 10 µM (U251): 16.6%; activity at 10 µM (SN12C): 8.77%; activity at 10 µM (UACC-257): 88.3%; activity at 10 µM (SW-620): 43.2% |
| O=C(/C=C/c1cccc(Cl)c1)c1ccc(-n2cc(CN3CCN(c4cc5c(cc4F)c(=O)c(C(=O)O)cn5C4CC4)CC3)nn2)cc1 [Compound 4b, (E)-7-(4-((1–(4-(3-(3-chlorophenyl)acryloyl)phenyl)-1H-1,2,3-triazol-4-yl)methyl)piperazin-1-yl)-1-cyclopropyl-6-fluoro-4-oxo-1,4-dihydroquinoline-3-carboxylic acid] | significant tubulin polymerisation inhibition | 61.2 | 53.9 | 53.3 | 91.4 | 106 | 90.3 | 64.8 | 77.5 | 74 | 70.8 | 74 | 59.3 | 83.9 | 40.5 | 42.7 | 70.8 | 73.7 | 84.7 | 62.9 | activity at 10 µM (LOX IMVI): 36.9%; activity at 10 µM (SF-268): 56.4%; activity at 10 µM (SNB-19): 53.8%; activity at 10 µM (EKVX): 85%; activity at 10 µM (U251): 34.3%; activity at 10 µM (SN12C): 37.6%; activity at 10 µM (UACC-257): 87.7%; activity at 10 µM (SW-620): 85.4% |
